Reference: PubChem BioAssay AID248 (DTP/NCI, 2004)
Values joined by “and” are separate entries in the source; they are usually repeats but may differ in a detail not shown here. Equal entries are not always repeated. Inconclusive results and toxic doses are left out.

System: L1210 leukemia ip in BDF1 mice, survival T/C
Assay: NCI In Vivo Anticancer Drug Screen. Data for tumor model L1210 Leukemia (intraperitoneal) in B6D2F1 (BDF1) mice
Conditions: endpoint: mean survival time, higher = longer survival
Method in brief: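 Value reflects the ratio of survival in compound-treated mice to survival in vehicle-treated controls, with both groups carrying the same transplanted tumor.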

[1] = dose: 100.0 mg/kg/injection, schedule: Q01DX001 (ip), vehicle: carboxymethylcellulose (CMC)
[2] = dose: 200.0 mg/kg/injection, schedule: Q01DX001 (ip), vehicle: carboxymethylcellulose (CMC)
[3] = dose: 400.0 mg/kg/injection, schedule: Q01DX001 (ip), vehicle: carboxymethylcellulose (CMC)
[4] = dose: 100.0 mg/kg/injection, schedule: Q01DX005 (ip), vehicle: saline
[5] = dose: 200.0 mg/kg/injection, schedule: Q01DX005 (ip), vehicle: saline
[6] = dose: 100.0 mg/kg/injection, schedule: Q04DX002 (ip), vehicle: Klucel (hydroxypropylcellulose) (HPC)
[7] = dose: 100.0 mg/kg/injection, schedule: Q01DX001 (ip), vehicle: saline
[8] = dose: 200.0 mg/kg/injection, schedule: Q01DX001 (ip), vehicle: saline
[9] = dose: 400.0 mg/kg/injection, schedule: Q01DX001 (ip), vehicle: saline

**Q.** CCCCCCCCC(=O)N(CC(C)C)CC(C)C was tested. Which T/C [1] did it give?
**A.** 93 % of control

**Q.** What about the T/C (dose: 100.0 mg/kg/injection, schedule: Q01DX009 (ip), vehicle: carboxymethylcellulose (CMC)) of the same compound?
**A.** 101 % of control

**Q.** What about the T/C (dose: 100.0 mg/kg/injection, schedule: Q04DX002 (ip), vehicle: carboxymethylcellulose (CMC)) of the same compound?
**A.** 94 % of control

**Q.** What about the T/C (dose: 100.0 mg/kg/injection, schedule: Q04DX003 (ip), vehicle: carboxymethylcellulose (CMC)) of the same compound?
**A.** 101 % of control

**Q.** What about the T/C [2] of the same compound?
**A.** 91 % of control

**Q.** And the T/C (dose: 200.0 mg/kg/injection, schedule: Q01DX009 (ip), vehicle: carboxymethylcellulose (CMC))?
**A.** 101 % of control and 106 % of control

**Q.** What about the T/C (dose: 200.0 mg/kg/injection, schedule: Q04DX002 (ip), vehicle: carboxymethylcellulose (CMC)) of the same compound?
**A.** 102 % of control

**Q.** What about the T/C (dose: 200.0 mg/kg/injection, schedule: Q04DX003 (ip), vehicle: carboxymethylcellulose (CMC)) of the same compound?
**A.** 101 % of control

**Q.** And the T/C [3]?
**A.** 93 % of control

**Q.** And the T/C (dose: 400.0 mg/kg/injection, schedule: Q04DX002 (ip), vehicle: carboxymethylcellulose (CMC))?
**A.** 97 % of control

**Q.** What about the T/C (dose: 400.0 mg/kg/injection, schedule: Q04DX003 (ip), vehicle: carboxymethylcellulose (CMC)) of the same compound?
**A.** 104 % of control

**Q.** What does the source list for CSc1ncnc2c1ncn2C1OC(CO)C2OC(C)(C)OC21 (stereo not drawn)?
**A.** T/C [4]: 112 % of control; T/C [5]: 122 % of control

**Q.** Which T/C (dose: 25.0 mg/kg/injection, schedule: Q04DX003 (ip), vehicle: Klucel (hydroxypropylcellulose) (HPC)) does the source give for CCOC(=O)CCc1c(C(=O)O)[nH]c(C(=O)OCC)c1C here?
**A.** 102 % of control

**Q.** And the T/C (dose: 50.0 mg/kg/injection, schedule: Q04DX003 (ip), vehicle: Klucel (hydroxypropylcellulose) (HPC))?
**A.** 107 % of control

**Q.** And the T/C (dose: 100.0 mg/kg/injection, schedule: Q01DX001 (ip), vehicle: Klucel (hydroxypropylcellulose) (HPC))?
**A.** 98 % of control

**Q.** And the T/C (dose: 100.0 mg/kg/injection, schedule: Q04DX003 (ip), vehicle: Klucel (hydroxypropylcellulose) (HPC))?
**A.** 102 % of control

**Q.** What about the T/C (dose: 200.0 mg/kg/injection, schedule: Q01DX001 (ip), vehicle: Klucel (hydroxypropylcellulose) (HPC)) of the same compound?
**A.** 97 % of control

**Q.** What about the T/C (dose: 200.0 mg/kg/injection, schedule: Q04DX003 (ip), vehicle: Klucel (hydroxypropylcellulose) (HPC)) of the same compound?
**A.** 93 % of control

**Q.** What about the T/C (dose: 400.0 mg/kg/injection, schedule: Q01DX001 (ip), vehicle: Klucel (hydroxypropylcellulose) (HPC)) of the same compound?
**A.** 97 % of control

**Q.** What about the T/C (dose: 400.0 mg/kg/injection, schedule: Q04DX003 (ip), vehicle: Klucel (hydroxypropylcellulose) (HPC)) of the same compound?
**A.** 101 % of control

**Q.** C/C(=N/N=C(N)N)c1ccc(F)cc1 was tested. Which T/C (dose: 15.0 mg/kg/injection, schedule: Q01DX Z (ip), vehicle: carboxymethylcellulose (CMC)) did it give?
**A.** 95 % of control

**Q.** What about the T/C (dose: 15.0 mg/kg/injection, schedule: Q01DX Z (oral), vehicle: carboxymethylcellulose (CMC)) of the same compound?
**A.** 113 % of control

**Q.** What about the T/C (dose: 30.0 mg/kg/injection, schedule: Q01DX Z (ip), vehicle: carboxymethylcellulose (CMC)) of the same compound?
**A.** 100 % of control

**Q.** What about the T/C (dose: 30.0 mg/kg/injection, schedule: Q01DX Z (oral), vehicle: carboxymethylcellulose (CMC)) of the same compound?
**A.** 98 % of control

**Q.** What about the T/C (dose: 60.0 mg/kg/injection, schedule: Q01DX Z (oral), vehicle: carboxymethylcellulose (CMC)) of the same compound?
**A.** 103 % of control

**Q.** For COc1ccc(Br)cc1CC=O, which T/C [1] is on record?
**A.** 103 % of control

**Q.** And the T/C (dose: 177.6 mg/kg/injection, schedule: Q01DX001 (ip), vehicle: carboxymethylcellulose (CMC))?
**A.** 95 % of control and 105 % of control

**Q.** What about the T/C [2] of the same compound?
**A.** 103 % of control

**Q.** And the T/C (dose: 266.8 mg/kg/injection, schedule: Q01DX001 (ip), vehicle: carboxymethylcellulose (CMC))?
**A.** 97 % of control and 103 % of control

**Q.** And the T/C [3]?
**A.** 95 % of control and 103 % of control

**Q.** What about the T/C (dose: 600.0 mg/kg/injection, schedule: Q01DX001 (ip), vehicle: carboxymethylcellulose (CMC)) of the same compound?
**A.** 97 % of control and 103 % of control

**Q.** Which T/C [6] does the source give for COc1cccc(NC(=O)Oc2ccc(Cl)cc2Cl)c1 here?
**A.** 88 % of control

**Q.** And the T/C (dose: 200.0 mg/kg/injection, schedule: Q04DX002 (ip), vehicle: Klucel (hydroxypropylcellulose) (HPC))?
**A.** 88 % of control

**Q.** How did the T/C (dose: 100.0 mg/kg/injection, schedule: Q01DX001 (ip), vehicle: acetone) turn out when O=C(O)C1(Br)CC12c1ccccc1-c1ccccc12 (stereo not drawn) was run?
**A.** 92 % of control

**Q.** And the T/C (dose: 200.0 mg/kg/injection, schedule: Q01DX001 (ip), vehicle: acetone)?
**A.** 95 % of control

**Q.** Which T/C [6] does the source give for CCCCN(CCCC)CCNCC(Cc1ccccc1)c1ccccc1 (stereo not drawn) here?
**A.** 93 % of control

**Q.** Which T/C [4] does the source give for CCSC1C(OC(C)=O)C(C(CSC(C)=O)OC(C)=O)OC1n1cc(C)c(=O)[nH]c1=O (stereo not drawn) here?
**A.** 94 % of control

**Q.** And the T/C [5]?
**A.** 98 % of control

**Q.** COc1cc(C=Nc2ccc(-c3nc(C)sc3C)cc2)ccc1N(CCCl)CCCl was tested. Which T/C (dose: 11.0 mg/kg/injection, schedule: Q01DX009 (ip), vehicle: carboxymethylcellulose (CMC)) did it give?
**A.** 200 % of control

**Q.** And the T/C (dose: 11.1 mg/kg/injection, schedule: Q01DX001 (ip), vehicle: carboxymethylcellulose (CMC))?
**A.** 118 % of control

**Q.** And the T/C (dose: 16.6 mg/kg/injection, schedule: Q01DX009 (ip), vehicle: carboxymethylcellulose (CMC))?
**A.** 90 % of control

**Q.** And the T/C (dose: 25.0 mg/kg/injection, schedule: Q01DX001 (ip), vehicle: carboxymethylcellulose (CMC))?
**A.** 202 % of control

**Q.** What does the source list for CC(=O)OC1CC23CCC(=O)C2(CC3)C1 (stereo not drawn)?
**A.** T/C (dose: 100.0 mg/kg/injection, schedule: Q04DX002 (ip), vehicle: saline with Tween-80): 99 % of control; T/C (dose: 200.0 mg/kg/injection, schedule: Q04DX002 (ip), vehicle: saline with Tween-80): 111 % of control; T/C (dose: 400.0 mg/kg/injection, schedule: Q04DX002 (ip), vehicle: saline with Tween-80): 99 % of control

**Q.** Which results are given for C1CCc2nnnn2CC1?
**A.** T/C (dose: 6.25 mg/kg/injection, schedule: Q01DX009 (ip), vehicle: saline): 111 % of control; T/C (dose: 12.5 mg/kg/injection, schedule: Q01DX009 (ip), vehicle: saline): 101 % of control and 97 % of control; T/C (dose: 12.5 mg/kg/injection, schedule: Q04DX003 (ip), vehicle: saline): 103 % of control; T/C (dose: 25.0 mg/kg/injection, schedule: Q01DX009 (ip), vehicle: saline): 109 % of control and 90 % of control; T/C (dose: 25.0 mg/kg/injection, schedule: Q04DX003 (ip), vehicle: saline): 101 % of control; T/C (dose: 50.0 mg/kg/injection, schedule: Q01DX009 (ip), vehicle: saline): 96 % of control; T/C (dose: 50.0 mg/kg/injection, schedule: Q04DX003 (ip), vehicle: saline): 95 % of control and 106 % of control

**Q.** With CC1(C)CC2(CC3(C1)SCCS3)SCCS2 as the compound, how does the T/C [7] read?
**A.** 94 % of control

**Q.** What about the T/C (dose: 100.0 mg/kg/injection, schedule: Q04DX003 (ip), vehicle: acetone) of the same compound?
**A.** 89 % of control

**Q.** What about the T/C [8] of the same compound?
**A.** 97 % of control

**Q.** And the T/C (dose: 200.0 mg/kg/injection, schedule: Q04DX003 (ip), vehicle: acetone)?
**A.** 96 % of control

**Q.** And the T/C [9]?
**A.** 89 % of control

**Q.** What about the T/C (dose: 400.0 mg/kg/injection, schedule: Q04DX003 (ip), vehicle: acetone) of the same compound?
**A.** 91 % of control

**Q.** For CC(C)(C)C(=O)Oc1ccc2ccccc2c1, which T/C (dose: 75.0 mg/kg/injection, schedule: Q04DX002 (ip), vehicle: gum acacia) is on record?
**A.** 105 % of control

**Q.** What about the T/C (dose: 150.0 mg/kg/injection, schedule: Q04DX002 (ip), vehicle: gum acacia) of the same compound?
**A.** 92 % of control

**Q.** What about the T/C (dose: 300.0 mg/kg/injection, schedule: Q04DX002 (ip), vehicle: gum acacia) of the same compound?
**A.** 123 % of control

**Q.** Which results are given for COc1ccc(/C=C2\N=C(c3ccccc3)OC2=O)c(Cl)c1OC?
**A.** T/C (dose: 50.0 mg/kg/injection, schedule: Q01DX001 (ip), vehicle: saline): 97 % of control; T/C [7]: 97 % of control; T/C [8]: 100 % of control; T/C [9]: 94 % of control

**Q.** With C=CCN(CC=C)P(=O)(N(CC=C)CC=C)N1CC1 as the compound, how does the T/C (dose: 3.0 mg/kg/injection, schedule: Q01DX015 (ip), vehicle: saline) read?
**A.** 151 % of control

**Q.** What about the T/C (dose: 5.0 mg/kg/injection, schedule: Q01DX001 (ip), vehicle: saline) of the same compound?
**A.** 117 % of control

**Q.** What about the T/C (dose: 5.0 mg/kg/injection, schedule: Q01DX015 (ip), vehicle: saline) of the same compound?
**A.** 155 % of control

**Q.** And the T/C (dose: 7.0 mg/kg/injection, schedule: Q01DX015 (ip), vehicle: saline)?
**A.** 173 % of control

**Q.** What about the T/C (dose: 10.0 mg/kg/injection, schedule: Q01DX001 (ip), vehicle: saline) of the same compound?
**A.** 117 % of control

**Q.** And the T/C (dose: 11.0 mg/kg/injection, schedule: Q01DX015 (ip), vehicle: saline)?
**A.** 178 % of control

**Q.** What about the T/C [7] of the same compound?
**A.** 175 % of control
